How the values were obtained:
Test in all cases: Growth in liquid media in presence of test compound
Assay type in all cases: cell-based
[1] = test system: Mycobacterium tuberculosis (H37Rv)
[2] = test system: Pseudomonas aeruginosa (ATCC 27853)
Description: (§1) Test organisms used were the bacterial strains Escherichia coli (ATCC 25922), Pseudomonas aeruginosa (ATCC 27853), Staphylococcus aureus (ATCC 25923), Streptococcus pyogenes (ATCC 19615), and Mycobacterium tuberculosis (H37Rv), and the yeast strain Candida albicans (ATCC 90028).
(§2) The liquid media used for growth were Luria-Bertani (Becton Dickinson, Sparks, Md.) and Mueller-Hinton (bio-Merieux, Paris, France) broths, but with Saburo medium for Candida and Middlebrook 7H9 medium (Difco) for mycobacteria.
(§3) The strains were grown at 37° C. and after suitable cell concentrations had been reached, 100 μL of each cell suspension was added to a tube with growth media and test compound. Cultivation of the bacteria was then carried out in the presence of each test compound at 37° C. and the tubes examined for visible growth. The compounds were tested at concentrations of either 500 mg/l, 50 mg/l or 5 mg/l. This assay was repeated twice.
(§4) Some compounds were only tested against some test organisms. It will be appreciated that the charge of these molecules will depend on the environment, some of the Examples are shown with a suitable counter ion, some without.

[3] = test system: Staphylococcus aureus (ATCC 25923)
Description: as §1, §2, §3, §4

[4] = test system: Escherichia coli (ATCC 25922)
Description: as §1, §2, §3, §4

[5] = test system: Streptococcus pyogenes (ATCC 19615)
Description: as §1, §2, §3, §4

[6] = test system: Candida albicans (ATCC 90028)
Description: as §1, §2, §3, §4

Row | SMILES | Growth in the presence of test compound, M. tuberculosis ([1]; 5 mg/L) | Growth in the presence of test compound, M. tuberculosis ([1]; 50 mg/L) | Growth in the presence of test compound, M. tuberculosis ([1]; 500 mg/L) | Growth in the presence of test compound, P. aeruginosa ([2]; 5 mg/L) | Growth in the presence of test compound, P. aeruginosa ([2]; 50 mg/L) | Growth in the presence of test compound, P. aeruginosa ([2]; 500 mg/L) | Growth in the presence of test compound, S. aureus ([3]; 5 mg/L) | Growth in the presence of test compound, S. aureus ([3]; 50 mg/L) | Growth in the presence of test compound, S. aureus ([3]; 500 mg/L) | Growth in the presence of test compound, E. coli ([4]; 5 mg/L) | Growth in the presence of test compound, E. coli ([4]; 50 mg/L) | Growth in the presence of test compound, E. coli ([4]; 500 mg/L) | Growth in the presence of test compound, S. pyogenes ([5]; 5 mg/L) | Growth in the presence of test compound, S. pyogenes ([5]; 50 mg/L) | Growth in the presence of test compound, S. pyogenes ([5]; 500 mg/L) | Growth in the presence of test compound, C. albicans ([6]; 5 mg/L) | Growth in the presence of test compound, C. albicans ([6]; 50 mg/L) | Growth in the presence of test compound, C. albicans ([6]; 500 mg/L)
1 | CC1(C)C2CC3OB([C@@H](CNC(=O)[C@@H](N)CCCCN)Cc4ccc5ccccc5c4)O[C@]3(C)C1C2 (stereo partly drawn) [Compound 21] | − | − | − | + | + | ± | + | ± | + | + | + | + | + | + | ± | + | + | ±
2 | Cl.Cl.NCCCC[C@@H](N)C(=O)NC[C@@H](Cc1ccccc1)B(O)O [Compound 48] | ± | − | − | + | + | + | + | + | + | + | + | + | + | + | + | + | + | +
3 | CC1(C)C2CC3OB([C@H](CNC(=O)[C@@H](N)Cc4ccccc4)Cc4ccccc4)O[C@@]3(C)C1C2 (stereo partly drawn) [Compound 14] | + | − | − | + | + | − | + | + | + | + | + | + | + | + | ± | + | ± | ±
4 | CC1(C)C2CC3OB([C@@H](CNC(=O)[C@@H](N)Cc4ccccc4)Cc4ccc(F)cc4)O[C@]3(C)C1C2.Cl (stereo partly drawn) [Compound 49] | ± | − | − | + | + | + | + | + | + | + | + | + | + | + | + | + | + | +
5 | Cl.N[C@@H](Cc1ccccc1)C(=O)NC[C@@H](Cc1ccc(OC(F)(F)F)cc1)B(O)O [Compound 57] | + | − | − | + | + | − | + | + | + | + | + | ± | + | + | − | + | + | −
6 | C[C@H](N)C(=O)NC[C@@H](Cc1ccc(OC(F)(F)F)cc1)B1OC2CC3CC(C3(C)C)[C@@]2(C)O1.Cl (stereo partly drawn) [Compound 56] | + | − | − | + | + | + | + | ± | + | + | + | + | + | − | + | + | ± | ±
7 | NCCCC[C@H](N)C(=O)NC[C@@H](Cc1ccccc1)B(O)O [Compound 38] | − | − | − | + | + | + | + | + | ± | + | + | ± | + | + | − | + | + | ±
